The nature of test [1]: Antioxidant activity assessed as DPPH radical scavenging activity at 10^-3 M relative to control. The test is classed as functional.
Test [2] in a line: Antioxidant activity assessed as DPPH radical scavenging activity at 10 ug/ml after 20 mins by UV absorbance method relative to control. It counts as functional.
A short description of test [3]: Antioxidant activity assessed as inhibition of lipid peroxidation relative to control. The note with it: dose or concentration not given here. It counts as functional.
Test [4] can be described thus: Antioxidant activity assessed as DPPH radical scavenging activity after 20 mins by UV absorbance method relative to control. It counts as functional.
Test [5] in a line: Antioxidant activity assessed as DPPH radical scavenging activity at 80 ug/ml relative to control. It counts as functional.
A short description of test [6]: Antioxidant activity assessed as radical scavenging activity at 30 to 50 ug/ml relative to control. It counts as functional.
Test [7] can be described thus: Antioxidant activity assessed as DPPH radical scavenging activity at 30 to 50 ug/ml relative to control. The test is classed as functional.
A short description of test [8]: Antioxidant activity assessed as inhibition of DPPH radical at 100 ug/ml relative to control. The test is classed as functional.
Test [9] can be described thus: Antioxidant activity assessed as ferric ion reducing activity after 20 mins in presence of potassium ferricyanide by FRAP assay relative to control. The test is classed as functional. Details: scale not given: the % may be the effect or the level left.
Test [10] can be described thus: Antioxidant activity assessed as nitric oxide radical scavenging activity at 100 mM after 150 mins in presence of sodium nitroprusside relative to control. It counts as functional.
Test [11] is described as follows: Antioxidant activity assessed as DPPH radical scavenging activity at 100 mM after 30 mins relative to control. It counts as functional.
Test [12] in a line: Antioxidant activity assessed as DPPH radical scavenging activity at 20 ug/ml relative to control. The test is classed as functional.
A short description of test [13]: Antioxidant activity assessed as DPPH radical scavenging activity at 40 ug/ml relative to control. It counts as functional.
The nature of test [14]: Antioxidant activity assessed as DPPH radical scavenging activity at 60 ug/ml relative to control. The test is classed as functional.

`NS(=O)(=O)c1ccc(-n2nc(-c3cccs3)cc2-c2cnn(-c3ccccc3)c2)cc1`: the Activity in [1] was found to be 12%. Turning to `COc1ccc(C2CC(Cn3c4ccccc4c4nc5cc(Cc6ccc7nc(-c8ccccc8)c(-c8ccccc8)nc7c6)ccc5nc43)=NN2C(=O)c2ccc(Cl)cc2)cc1` (configuration not stated), the Activity in test [2] came out at 59.4%. Consider `Cc1c(C)c2c(c(C)c1O)CCC(C)(C(=O)O)O2` (configuration not stated), for which the inhibition in test [3] is 64%. Consider `c1ccc(C2=NN(c3ccccc3)C(Cn3cnc4c(N5CCCCC5)ncnc43)C2)cc1` (configuration not stated), for which, in test [4], the Activity lay within 13 to 24%. The inhibition in test [3] came to 72%. For the compound `CCOC(=O)C1=C(N)Oc2c(c(C)nn2C(=O)c2ccncc2)C1c1c(-c2ccccc2)[nH]c2ccc(Cl)cc12` (configuration not stated), the Activity in test [5] turned out to be 76.7%. For the compound `Cc1ccc(N2N=C(c3ccccc3)CC2Cn2cnc3c(N4CCCC4)ncnc32)cc1` (configuration not stated), the Activity in [4] lay within 43 to 44%. Moreover, in test [3], the inhibition came to 49%. Compound `CCOC(=O)c1sc(Nc2ccccc2)c(-c2nc3c(cnn3-c3ccccc3)c(=O)[nH]2)c1N` had an Activity of 92%. For `Cc1ccc(N2N=C(c3ccccc3)CC2Cn2cnc3c(N4CCCCC4)ncnc32)cc1` (configuration not stated), the Activity in test [4] was in the range of 13 to 24%. On to `O=C(Nc1ccccc1)NS(=O)(=O)c1ccc(N2N=C(c3ccco3)CC2c2cnn(-c3ccccc3)c2)cc1` (configuration not stated), for which, in test [1], the Activity worked out at 25%. On the same count and under the same terms, to `O=C(Nc1ccc(Cl)cc1)NS(=O)(=O)c1ccc(N2N=C(c3ccco3)CC2c2cnn(-c3ccccc3)c2)cc1` (configuration not stated) belongs 16%. With `COc1cc(C2=NN(c3ccccc3)[C@H]3C(=O)N(c4ccccc4)C(=O)[C@@H]23)cc(OC)c1OC`, the Activity in [6] was under 55%.

Take `COc1ccc(C2C(c3ccc(Br)cc3)=NN(c3ccccc3)C2C#N)cc1` (configuration not stated): the Activity in test [7] is under 60%.

In the case of `NS(=O)(=O)c1ccc(N2N=C(c3ccco3)CC2c2cnn(-c3ccccc3)c2)cc1` (configuration not stated), the Activity in [1] came to 23%. Regarding `CCOC(=O)c1c(C)nn(-c2cccc(Cl)c2)c1-c1ccc([N+](=O)[O-])cc1`, in test [8], the inhibition fell in the range of 22.2 to 49.9%.

With `COc1ccc(C2CC(Cn3c4ccccc4c4nc5cc(Cc6ccc7nc(-c8ccccc8)c(-c8ccccc8)nc7c6)ccc5nc43)=NN2C(=O)c2ccccc2)cc1` (configuration not stated), in test [2], the Activity came to 50.5%. With `O=S(=O)(NC(=S)Nc1ccc(F)cc1)c1ccc(N2N=C(c3ccco3)CC2c2cnn(-c3ccccc3)c2)cc1` (configuration not stated), the Activity in test [1] worked out at 27%.

For `Cc1ccc(-n2nc(-c3ccccc3)cc2Cn2cnc3c(N4CCCC4)ncnc32)cc1`, the Activity in test [4] was 43 to 44%. For the same compound, the inhibition in test [3] amounted to 87%. Regarding `CCOC(=O)c1c(C)nn(-c2ccccc2)c1-c1ccc(N(C)C)cc1`, in test [8], the inhibition fell in the range of 22.2 to 49.9%. On the same count and under the same terms, in the case of `CCOC(=O)c1c(C)nn(-c2ccccc2)c1-c1ccc([N+](=O)[O-])cc1` it was 22.2 to 49.9%. On to `COc1ccc(-c2nn(-c3ccccc3)cc2/C=C/C(=O)c2cccc(NC(=O)c3ccc(F)cc3)c2)cc1`, for which the Activity was 44.4 to 55.5% in test [9] and 32.4 to 77.9% in [10]. For `O=C(/C=C/c1cn(-c2ccccc2)nc1-c1ccccc1)c1cccc(NC(=O)c2ccc(F)cc2)c1`, the Activity lay within 36.8 to 42.3% in test [11], 44.4 to 55.5% in test [9] and 32.4 to 77.9% in [10]. Take `Cc1ccc(-n2nc(-c3ccccc3)cc2Cn2cnc3c(N4CCOCC4)ncnc32)cc1`: the Activity in [4] was in the range of 62 to 79%. In addition, in [3], the inhibition is 99%. On to `O=C1O[C@H]([C@@H](O)CO)C(O)=C1O`, for which the Activity stood at 92.7%. For the same compound, the Activity in test [11] is 43%. The Activity in [2] was found to be 40%. The inhibition in test [8] was 28.6%. Further, in test [9], the Activity stood at 42.4%. Further, the Activity in test [10] was determined as 32.3%. With `CC(C)(C)OC(=O)N1CCN(c2ncnc3c2ncn3CC2CC(c3ccccc3)=NN2c2ccccc2)CC1` (configuration not stated), the Activity in [4] lay within 13 to 24%. The inhibition in test [3] turned out to be 54%.

For `CCOC(=O)c1c(C)nn(-c2cccc(Cl)c2)c1-c1ccc(N(C)C)cc1`, the inhibition in test [8] fell in the range of 22.2 to 49.9%. As to `COc1ccc(C2C(c3ccccc3)=NN(c3ccccc3)C2C#N)cc1` (configuration not stated), in test [7], the Activity is under 45%.

With `O=C1[C@H]2C(c3ccc(Cl)cc3)=NN(c3ccccc3)[C@H]2C(=O)N1c1ccccc1`, the Activity in test [6] is under 40%. On to `COc1ccc(C2=NN(c3ccccc3)[C@H]3C(=O)N(c4ccccc4)C(=O)[C@@H]23)cc1`, for which the Activity in test [6] was under 55%. `O=C1[C@H]2C(c3ccccc3)=NN(c3ccccc3)[C@H]2C(=O)N1c1ccccc1`: the Activity in [6] is under 55%. For `Nc1n[nH]c(-c2ccccc2)c1-c1nc2c(cnn2-c2ccccc2)c(=O)[nH]1`, the Activity stood at 92.3%.

On to `COc1ccc(C2=NN(c3ccccc3)[C@H]3C(=O)N(c4ccccc4)C(=O)[C@@H]23)cc1OC`, for which, in [6], the Activity is under 55%.

With `c1ccc(C2=NN(c3ccccc3)C(Cn3cnc4c(N5CCCC5)ncnc43)C2)cc1` (configuration not stated), in test [4], the Activity lay within 13 to 24%. In addition, the inhibition in test [3] was determined as 73%.

For `O=C(/C=C/c1cn(-c2ccccc2)nc1-c1ccc(F)cc1)c1cccc(NC(=O)c2ccc(F)cc2)c1`, the figures for the Activity in test [11] and in test [10] were 33.3% and 32.4 to 77.9%, respectively. Take `Cc1ccc(-c2nn(-c3ccccc3)cc2/C=C/C(=O)c2cccc(NC(=O)c3ccc(F)cc3)c2)cc1`: the Activity fell in the range of 36.8 to 42.3% in test [11], 44.4 to 55.5% in [9] and 32.4 to 77.9% in test [10].

Regarding `CCOC(=O)C1=C(N)Oc2c(c(C)nn2C(=O)c2ccncc2)C1c1c(-c2ccc(C)cc2)[nH]c2ccc(Cl)cc12` (configuration not stated), the Activity in test [12] was in the range of 66.6 to 76.1%.

As to `CCOC(=O)c1c(C)nn(-c2cccc(Cl)c2)c1-c1ccc(Cl)cc1`, in test [8], the inhibition was 22.2 to 49.9%.

On to `CCOC(=O)C1=C(N)Oc2c(c(C)nn2C(=O)c2ccncc2)C1c1c(-c2ccc(C)cc2)[nH]c2ccccc12` (configuration not stated), for which the Activity amounted to 79.6% in test [13], 76.1% in test [5], 76.1% in [14] and 80.1% in test [12]. With `O=C(c1ccc(Cl)cc1)N1N=C(Cn2c3ccccc3c3nc4cc(Cc5ccc6nc(-c7ccccc7)c(-c7ccccc7)nc6c5)ccc4nc32)CC1c1ccc(F)cc1` (configuration not stated), the Activity in test [2] was 40.6%. Consider `Cc1ccc(-n2nc(-c3ccccc3)cc2Cn2cnc3c(Cl)ncnc32)cc1`, for which the Activity in test [4] was found to be 60%.

Take `CCOC(=O)c1c(C)nn(-c2cccc(Cl)c2)c1-c1cccc(Cl)c1`: in test [8], the inhibition lay in the range of 22.2 to 49.9%. `COc1ccc(C2C(c3ccco3)=NN(c3ccccc3)C2C#N)cc1` (configuration not stated): in test [7], the Activity was under 45%. For the compound `O=C(c1ccc(Cl)cc1)N1N=C(Cn2c3ccccc3c3nc4cc(Cc5ccc6nc(-c7ccccc7)c(-c7ccccc7)nc6c5)ccc4nc32)CC1c1ccc(Cl)cc1` (configuration not stated), the Activity in [2] was determined as 58.3%. With `Clc1ncnc2c1ncn2CC1CC(C2=NNC(Cn3cnc4c(Cl)ncnc43)C2)=NN1` (configuration not stated), the Activity in test [4] lay in the range of 62 to 79%. As to `O=C(/C=C/c1cn(-c2ccccc2)nc1-c1ccc(Cl)cc1)c1cccc(NC(=O)c2ccc(F)cc2)c1`, the Activity lay within 44.4 to 55.5% in test [9] and 32.4 to 77.9% in test [10]. For the compound `O=C1[C@H]2C(c3ccccc3)=NN(c3ccccc3)[C@H]2C(=O)N1c1ccc(Cl)cc1`, the Activity in [6] was under 40%. Consider `CCOC(=O)c1c(C)nn(-c2ccc(C)cc2C)c1-c1ccc([N+](=O)[O-])cc1`, for which the inhibition in [8] fell in the range of 22.2 to 49.9%.

`O=C(/C=C/c1cn(-c2ccccc2)nc1-c1cccc([N+](=O)[O-])c1)c1cccc(NC(=O)c2ccc(F)cc2)c1`: the Activity is 33.3% in [11] and 32.4 to 77.9% in test [10]. With `NS(=O)(=O)c1ccc(N2N=C(c3cccs3)CC2c2cnn(-c3ccccc3)c2)cc1` (configuration not stated), the Activity in test [1] worked out at 29%. Take `c1ccc(C2=NN(c3ccccc3)C(Cn3cnc4c(N5CCOCC5)ncnc43)C2)cc1` (configuration not stated): in test [4], the Activity was in the range of 13 to 24%. For the same compound, the inhibition in test [3] worked out at 100%. Regarding `Cc1ccc(N2N=C(c3ccccc3)CC2Cn2cnc3c(N4CCOCC4)ncnc32)cc1` (configuration not stated), the Activity in [4] lay in the range of 43 to 44%. In addition, in [3], the inhibition was 5.8%.

Regarding `CCOC(=O)C1=C(N)Oc2c(c(C)nn2C(=O)c2ccncc2)C1c1c(-c2ccccc2)[nH]c2ccccc12` (configuration not stated), the Activity in [13] was 66.6 to 76.1%; in test [5], 70.2%; in [14], 74.5%. Take `Cc1ccc(N2N=C(c3ccccc3)CC2Cn2cnc3c(Cl)ncnc32)cc1` (configuration not stated): the Activity in test [4] came out at 20%. In addition, the inhibition in test [3] came out at 58%. Regarding `O=C(c1ccccc1)N1N=C(Cn2c3ccccc3c3nc4cc(Cc5ccc6nc(-c7ccccc7)c(-c7ccccc7)nc6c5)ccc4nc32)CC1c1ccc(F)cc1` (configuration not stated), the Activity in test [2] was 45.5%. For the compound `COc1ccc(C2=NN(c3ccccc3)C(C#N)C2c2ccc(OC)cc2)cc1` (configuration not stated), the Activity in test [7] is under 45%. The same measure, in the same setting: in the case of `COc1ccc(C2C(c3ccc(Cl)cc3)=NN(c3ccccc3)C2C#N)cc1` (configuration not stated) it was under 60%. On to `CCOC(=O)c1c(C)nn(-c2ccc(C)cc2C)c1-c1ccc(N(C)C)cc1`, for which the inhibition in test [8] is 22.2 to 49.9%. With `Clc1ncnc2c1ncn2CC1CC(c2ccccc2)=NN1c1ccccc1` (configuration not stated), in [4], the Activity was in the range of 13 to 24%. Besides, the inhibition in test [3] is 94%. For `O=C(/C=C/c1cn(-c2ccccc2)nc1-c1ccc(Br)cc1)c1cccc(NC(=O)c2ccc(F)cc2)c1`, the Activity in test [11] lay within 36.8 to 42.3%; in test [9], 44.4 to 55.5%; in test [10], 32.4 to 77.9%. Consider `COc1ccc(C2C(c3ccc(F)cc3)=NN(c3ccccc3)C2C#N)cc1` (configuration not stated), for which the Activity in [7] was under 60%. Same read-out and setting: in the case of `COc1ccc(C2C(c3ccc(OC)c(OC)c3)=NN(c3ccccc3)C2C#N)cc1` (configuration not stated) it was 32%. Take `COc1ccc(C2C(c3ccc(C#N)cc3)=NN(c3ccccc3)C2C#N)cc1` (configuration not stated): in [7], the Activity was under 60%. `Cc1ccc(-n2nc(-c3ccccc3)cc2Cn2cnc3c(N4CCCCC4)ncnc32)cc1`: in test [4], the Activity was in the range of 62 to 79%.
